These are literature values, as cited in US4446129A, “Method for treatment of arthrosis deformans with elastase” (Eisai Co., Ltd., priority 1982, dated 1984).

Each structure is given as a SMILES string.

The data set concerns elastase. The following applies: cited from earlier work.

As for `N.N.O=S(=O)(O)O` [(NH4)2 SO4], the “inhibition of elastase activity” value is “inhibited”.

With `O=S(=O)([O-])[O-].[Cu+2]` [CuSO4], the “inhibition of elastase activity” value is listed as “inhibited”.

For the molecule `[Cl-].[K+]` [KCl], the “inhibition of elastase activity” value is given as “inhibited”.

Consider `[Cl-].[Na+]` [NaCl], for which the “inhibition of elastase activity” value is listed as “inhibited”.
